In patent EP0499662A1, “Compositions with enhanced penetration” (WARNER-LAMBERT COMPANY, priority 1991, dated 1992):

Assay: in vitro permeation (diffusion) study across hairless mouse skin

SMILES: C[C@]12CCC(=O)C=C1CC[C@@H]1[C@@H]2[C@@H](O)C[C@@]2(C)[C@H]1CC[C@]2(O)C(=O)CO [Hydrocortisone, hydrocortisone]
- Avg. Flux (formulation EtOH, saturated with the drug except for verapamil, average of the flux values at each sampling time within 24 hours): 0.64 µg/cm^2/h
- Avg. Flux (formulation EtOH:Mig 20:80, saturated with the drug except for verapamil, average within 24 hours): 10.24 µg/cm^2/h
- Avg. Flux (formulation Mig (Miglyol 840), saturated with the drug except for verapamil, average within 24 hours): 1.49 µg/cm^2/h
